We go through 84 compounds from PubChem BioAssay AID493130 (Broad Institute, 2011).

Inconclusive results are not listed. The source made the active and inactive calls.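 Rule for the calls: active = signal-lowering compounds whose fitted half-maximal concentration is at most ten times their highest tested dose; inconclusive = flat fit between -30 and -70%, or poor fit; inactive = flat within 30%, signal rising, or potency beyond limit.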

One experiment addresses POS-1 (Caenorhabditis elegans) binding to mex-3 RNA. Kind of experiment: inhibitors of POS-1/mex-3 RNA binding, dose response, counter-screen for MEX-5 RNA-binding inhibitor project, biochemical, fluorescence polarization, cherry-picked samples, set 2 (AID 493130).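 Note: POS-1 as maltose binding protein fusion made in E. coli with FITC RNA.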 The conditions noted are these: POS-1/mex-3 RNA fluorescence polarization, 1 h. In general terms: Counterscreens check selectivity or assay interference.
Take `COCC1CCN(Cc2c(C(=O)N3CCc4ccccc4C3)nc3ccc(Cl)cn23)C1` (centres undefined): the AC50 was > 10 µM (inactive).

For the compound `CC(=O)Nc1ccc(N2C(=O)c3cccc4c(O)ccc(c34)C2=O)cc1`, the AC50 was 1.41 µM.

For the compound `C=CCn1c(=O)[nH]c2nc3cc(N=CN(C)C)c(C)cc3nc2c1=O`, the AC50 was 7.27 µM.

`COc1ccc(C2C=C(c3ccc(Br)cc3)Nc3nc(N4C(=O)CCC4=O)nn32)cc1` (centres undefined): the concentration at half-maximal activity (AC50) was 8.26 µM.

Consider `CN1CC=C2C(C#N)=C(N)C(C#N)(C#N)[C@H](c3ccoc3)[C@H]2C1`, for which the AC50 was 5.4 µM.

In the case of `O=C(N/N=C/c1c(O)n(C2CC2)c(=S)[nH]c1=O)c1ccccc1O`, the concentration at half-maximal activity (AC50) is 6.64 µM.

In the case of `COc1ccc(-c2onc3ccc(C(C)=O)cc23)cc1`, the AC50 is under 0.08 µM.

Consider `N#CC1(C#N)C(c2ccccc2)OC23CCCCC2C1(C#N)C(=N)O3` (centres undefined), for which the AC50 is 4.61 µM.

`COc1ccc2c(c1)NP(=S)(Oc1ccccc1)N2` (centres undefined): the AC50 is 6.91 µM.

For the compound `CC(=O)Nc1ccc2cc3ccc(NC(C)=O)cc3nc2c1`, the half-maximal activity concentration (AC50) is 6.38 µM.

In the case of `Nc1ccc2nc3c(=O)n(CCc4ccccc4)c(=O)[nH]c3nc2c1`, the AC50 is 1.22 µM.

As to `CCN1CC=C2C(C#N)=C(N)C(C#N)(C#N)[C@H](c3ccoc3)[C@H]2C1`, the half-maximal activity concentration (AC50) is 6.73 µM.

`CCOC(=O)C1=C(CSc2nc3c(cc2C#N)CN(C)CC3)OC(N)=C(C#N)C1c1ccncc1` (centres undefined): the AC50 was 7.33 µM.

With `Cc1ccc(C(=O)NNC(=O)c2ccc3ccccc3c2O)cc1`, the concentration at half-maximal activity (AC50) is 7.78 µM.

The experiment is the same for the next values; noted with them: POS-1/mex-3 RNA fluorescence polarization, 1 h; at 10 µM (top of the series).
For the compound `Cc1c(N=Cc2cc3c(cc2[N+](=O)[O-])OCO3)cccc1[N+](=O)[O-]`, the “activity change, negative = inhibition” value was “inactive”.

`CN(CC(=O)Nc1cccc(F)c1)C(=O)/C=C/c1cn(Cc2ccccc2)nc1-c1cccnc1`: the “activity change, negative = inhibition” value was “inactive”.

As to `CS(=O)(=O)c1ccccc1C(=O)Nc1cccc2ncccc12`, the “activity change, negative = inhibition” value is “inactive”.

Turning to `COc1cc2c3c(c1OC)-c1cc(O)ccc1CC3NCC2` (centres undefined), the “activity change, negative = inhibition” value is “inactive”.

Turning to `N#C/C(=C\c1cccc([N+](=O)[O-])c1)c1nnc2n1CCCCC2`, the “activity change, negative = inhibition” value is “inactive”.

As to `Oc1sc(C=Nc2ccc(F)cc2)c2ccccc12`, the “activity change, negative = inhibition” value is “inactive”.

Take `CCn1c(C)c(C(C)=O)c(N2CCN(c3ccccc3)CC2)nc1=S`: the “activity change, negative = inhibition” value was “inactive”.

Take `Cc1nc2c3ccccc3nc(NNC(=O)CCC(=O)N3CCC(C)CC3)n2n1`: the “activity change, negative = inhibition” value is “inactive”.

With `CC(=O)NNc1ncnc2ccccc12`, the “activity change, negative = inhibition” value was “inactive”.

For `O=C1SC(SCc2ccccc2Cl)=N/C1=C\c1ccc(C(=O)O)cc1`, the “activity change, negative = inhibition” value is “inactive”.

Consider `CCn1c(O)c(N=NC(=O)CNC(=O)/C=C/c2ccco2)c2ccccc21`, for which the “activity change, negative = inhibition” value was “inactive”.

With `CCC(=O)NCCc1nc2ccccc2n1Cc1ccccc1`, the “activity change, negative = inhibition” value is “inactive”.

On to `Cc1ccc2c(c1)c(C1=NC(=S)NC1=O)c(O)n2C`, for which the “activity change, negative = inhibition” value was “inactive”.

As for `Cc1ccc(O)c(-c2cc(C(=O)Nc3ccc(S(=O)(=O)Nc4nc(C)cc(C)n4)cc3)[nH]n2)c1`, the “activity change, negative = inhibition” value was “inactive”.

For `COc1cccc(NC2=C(NCCO)C(=O)c3ccccc3C2=O)c1`, the “activity change, negative = inhibition” value was “inactive”.

`Oc1ccc(Br)cc1C=Nc1cccn2cc(-c3ccccc3)nc12`: the “activity change, negative = inhibition” value is “inactive”.

Turning to `CCN(CC)c1ccc(N=Cc2c(O)n(-c3ccccc3C)c(=O)[nH]c2=O)cc1`, the “activity change, negative = inhibition” value is “inactive”.

On to `COc1ccc2nc3ccccc3nc2c1N`, for which the “activity change, negative = inhibition” value is “inactive”.

Turning to `CN1C(=O)/C(=C/c2ccco2)SC1=Nc1cccc(C(=O)O)c1`, the “activity change, negative = inhibition” value is “inactive”.

On to `N#CCCn1c2ccccc2c2nc3ccccc3nc21`, for which the “activity change, negative = inhibition” value is “inactive”.

`COc1ccc2c(c1)-c1ccccc1S(=O)(=O)N2C(C)=O`: the “activity change, negative = inhibition” value is “inactive”.

Consider `CCC(=O)N(CC)C1=C(O)c2ccccc2C(=O)C1=O`, for which the “activity change, negative = inhibition” value was “inactive”.

Turning to `CCN1CCN(Cc2c(C(=O)N/N=C(\C)c3ccc(Cl)c(Cl)c3)nnn2-c2nonc2N)CC1`, the “activity change, negative = inhibition” value is “inactive”.

With `COc1cc(/C=C2\CCCc3c2nc2ccccc2c3C(=O)O)cc(OC)c1O`, the “activity change, negative = inhibition” value was “inactive”.

Take `O=C1OC2(CCCC2)OC(=O)C1=Cc1c[nH]c2ccccc12`: the “activity change, negative = inhibition” value was “inactive”.

Turning to `CC(C)(C)OC(=O)NCCCC1=CC2=CC(=O)C(C)(O)C(=O)C2=CO1` (centres undefined), the “activity change, negative = inhibition” value was “inactive”.

As to `CCCCCOP(=O)(OCCCCC)C1(NS(=O)(=O)c2ccccc2)C=CC(=O)c2ccccc21` (centres undefined), the “activity change, negative = inhibition” value is “inactive”.

For the compound `Cc1cc2c(C)nc(N/N=C/c3ccc([N+](=O)[O-])cc3)nc2o1`, the “activity change, negative = inhibition” value was “inactive”.

For `CCN1C/C(=C/c2ccc(OC)c(O)c2)C(=O)/C(=C/c2ccc(OC)c(O)c2)C1`, the “activity change, negative = inhibition” value was “inactive”.

Take `COc1ccc(CCn2c(=N)c(C(=O)NCC3CCCO3)cc3c(=O)n4ccccc4nc32)cc1` (centres undefined): the “activity change, negative = inhibition” value was “inactive”.

As for `CCCNc1nc2ccccc2n2c(C)nnc12`, the “activity change, negative = inhibition” value was “inactive”.

As to `Cc1cc(C(=O)N/N=C/c2ccc(-c3ccc([N+](=O)[O-])cc3C)o2)n[nH]1`, the “activity change, negative = inhibition” value is “inactive”.

Take `NC1=NC(=O)/C(=C\C=C\c2ccccc2)S1`: the “activity change, negative = inhibition” value was “inactive”.

With `O=S(=O)(O)c1nc2ccccc2n1Cc1ccc(Cl)cc1Cl`, the “activity change, negative = inhibition” value is “inactive”.

As for `O=c1[nH]cnc2c1C(c1ccc(Cl)cc1)c1c(nc[nH]c1=O)O2`, the “activity change, negative = inhibition” value was “inactive”.

Turning to `CCOC(=O)CC1=C(C(=O)OCC)C(c2ccc(OC)c(OC)c2)C(C#N)=C(N)O1` (centres undefined), the “activity change, negative = inhibition” value is “inactive”.

Turning to `O=[N+]([O-])c1cc(S(=O)(=O)c2ccc(O)c([N+](=O)[O-])c2)ccc1O`, the “activity change, negative = inhibition” value was “inactive”.

For `O=C(NNC(=O)c1cc(Cl)ccc1[N+](=O)[O-])c1csc(N2CCOCC2)n1`, the “activity change, negative = inhibition” value is “inactive”.

As to `CCOC(=O)[C@]1(C#N)[C@@H]2C=CC(C(N)=O)=CN2[C@@H](C(N)=O)[C@@H]1c1ccc(F)cc1`, the “activity change, negative = inhibition” value was “inactive”.

In the case of `CCOc1cc(/C=N/n2c(C)nc3ccccc3c2=O)ccc1O`, the “activity change, negative = inhibition” value was “inactive”.

With `O=C1c2cccc3cccc(c23)C(=O)N1Cc1ccccc1`, the “activity change, negative = inhibition” value is “inactive”.

As to `Cc1cc(C(=O)N/N=C/c2ccc(-c3ccc(C)c(Cl)c3)o2)n[nH]1`, the “activity change, negative = inhibition” value is “inactive”.

For the compound `O=c1[nH]c2ccccc2n1Cc1ccc(Cl)cc1`, the “activity change, negative = inhibition” value was “inactive”.

`Cc1cccnc1Nc1nc(-c2ccc(O)cc2O)cs1`: the “activity change, negative = inhibition” value was “inactive”.

For the compound `COc1cccc(NCc2cc(=O)oc3cc(C)c(O)cc23)c1`, the “activity change, negative = inhibition” value was “inactive”.

`COc1ccc(-c2cn[nH]c2-c2ccc(OCC(=O)NN)cc2O)cc1`: the “activity change, negative = inhibition” value is “inactive”.

For the compound `COc1ccc(/C=N/NC(=S)Nc2cccc(C(=O)O)c2)cc1`, the “activity change, negative = inhibition” value was “inactive”.

With `COC(=O)c1cc(NC(=O)c2ccccc2)c(=O)oc1C`, the “activity change, negative = inhibition” value was “inactive”.

`O=C1NC(=O)N(Cc2ccccc2)C(=O)/C1=C\c1ccco1`: the “activity change, negative = inhibition” value was “inactive”.

As to `CN1C(=O)C(=Cc2sc(=O)n(-c3ccccc3)c2N(C)C)C(=O)N(C)C1=O`, the “activity change, negative = inhibition” value was “inactive”.

Take `O=C(CCc1ccccc1)N/N=C\c1cc2c(cc1Br)OCO2`: the “activity change, negative = inhibition” value is “inactive”.

Consider `Nc1cc(C(=O)O)c(Oc2ccc(Cl)cc2Cl)cc1C(=O)O`, for which the “activity change, negative = inhibition” value is “inactive”.

Regarding `CC1CN2C(c3ccc([N+](=O)[O-])cc3)=CSC2=N1` (centres undefined), the “activity change, negative = inhibition” value is “inactive”.

On to `Cn1c(CNC(=O)c2ccc(F)cc2)cc2ccccc21`, for which the “activity change, negative = inhibition” value was “inactive”.

On to `O=C(NNC(=O)c1cccs1)c1csc(N2CCOCC2)n1`, for which the “activity change, negative = inhibition” value was “inactive”.

Regarding `Nc1ccc2nc[nH]c2c1`, the “activity change, negative = inhibition” value was “inactive”.

As to `CC(=O)CCS(=O)(=O)c1ccc(Oc2ccc(S(=O)(=O)CCC(C)=O)cc2)cc1`, the “activity change, negative = inhibition” value is “inactive”.

Regarding `NC(=O)C(=O)N/N=C/c1c2ccccc2cc2ccccc12`, the “activity change, negative = inhibition” value is “inactive”.

Take `CCOC(=O)c1c(-c2ccccc2)oc2ccc(OCC(=O)NNC(=O)CCC(=O)O)cc12`: the “activity change, negative = inhibition” value was “inactive”.

As for `COc1ccc(CCNc2c3ccccc3nc3ccccc23)cc1OC`, the “activity change, negative = inhibition” value is “inactive”.

With `COc1ccc(/C=C2\C(=O)NC(=S)N2C(=O)c2ccc(C)cc2)cc1`, the “activity change, negative = inhibition” value was “inactive”.

Regarding `CCCC(=O)Nc1ccc(NC(=O)c2cccs2)cn1`, the “activity change, negative = inhibition” value is “inactive”.

As for `CN(N)N=Nc1nc2c([nH]1)c(=O)n(C)c(=O)n2C`, the “activity change, negative = inhibition” value was “inactive”.

For `O=C(O)c1ccccc1N=Nc1c(O)[nH]c2ccc([N+](=O)[O-])cc12`, the “activity change, negative = inhibition” value is “inactive”.

On to `Cc1ccc(S(=O)(=O)c2cc3c(=O)n4ccccc4nc3n(C3CCCCC3)c2=N)cc1`, for which the “activity change, negative = inhibition” value was “inactive”.

Turning to `COc1c(OC2OC(C(=O)O)C(O)C(O)C2O)cc(O)c2c(=O)cc(-c3ccccc3)oc12` (centres undefined), the “activity change, negative = inhibition” value was “inactive”.

Take `COc1ccc(/C=C/C(=O)N/C(=C\c2ccco2)C(=O)NCCc2nc3ccccc3[nH]2)cc1`: the “activity change, negative = inhibition” value is “inactive”.

As for `CCOC(=O)N1CCN(c2nc3ccccc3nc2C(C#N)C(=O)NCCc2ccccc2)CC1` (centres undefined), the “activity change, negative = inhibition” value is “inactive”.

For `Cc1cc(=O)oc(C)c1C(=O)Nc1c(C)n(C)n(-c2ccccc2)c1=O`, the “activity change, negative = inhibition” value is “inactive”.

Consider `Cc1nnc(SCc2nc3sc4c(c3c(=O)[nH]2)CCCC4)n(N)c1=O`, for which the “activity change, negative = inhibition” value is “inactive”.

What is called AC50 is the midpoint of the concentration-response curve, whichever way the signal moves.
